What was measured:
Format in all cases: in vivo
Settings in all cases: Compound A n-Butyl Ester alone, 16 gae/ha
[1] = test system: IPOHE (Ipomoea hederacea Jacq., ivyleaf morningglory); test: Example I postemergence foliar-applied mixtures, direct seeded rice weeds, greenhouse: IPOHE
Description: (§1) Seeds or nutlets of the desired test plant species were planted in a soil matrix prepared by mixing a loam or sandy loam soil (e.g., 28.6 percent silt, 18.8 percent clay, and 52.6 percent sand, with a pH of about 5.8 and an organic matter content of about 1.8 percent) and calcareous grit in an 80 to 20 ratio. The soil matrix was contained in plastic pots with a volume of 1 quart and a surface area of 83.6 square centimeters (cm^2). […] The plants were grown for 8-22 days in a greenhouse with an approximate 14 hr photoperiod which was maintained at about 29° C. during the day and 26° C. during the night. Nutrients (Peters Excel® 15-5-15 5-Ca 2-Mg and iron chelate) were applied in the irrigation solution as needed and water was added on a regular basis. Supplemental lighting was provided with overhead metal halide 1000-Watt lamps as necessary. The plants were employed for testing when they reached the first through fourth true leaf stage.
(§2) Treatments consisted of the acid or esters of 4-amino-3-chloro-5-fluoro-6-(4-chloro-2-fluoro-3-methoxy-phenyl)pyridine-2-carboxylic acid (Compound A), each formulated as an SC (suspension concentrate), and various herbicidal components alone and in combination. Forms of compound A were applied on an acid equivalent basis.
(§3) For treatments comprised of formulated compounds, measured amounts of compounds were placed individually in 25 mL glass vials and diluted in a volume of 1.25% (v/v) Agri-Dex® crop oil concentrated to obtain 12× stock solutions. […] Application solutions were prepared by adding an appropriate amount of each stock solution (e.g., 1 mL) and diluted to the appropriate final concentrations with the addition of 10 mL of an aqueous mixture of 1.25% (v/v) crop oil concentrate so that the final spray solutions contained 1.25+/−0.05% (v/v) crop oil concentrate.
(§4) All stock solutions and applications solutions were visually inspected for compound compatibility prior to application. Spray solutions were applied to the plant material with an overhead Mandel track sprayer equipped with a 8002E nozzles calibrated to deliver 187 L/ha over an application area of 0.503 m^2 at a spray height of 18 to 20 inches (46 to 50 cm) above average plant canopy height. Control plants were sprayed in the same manner with the solvent blank.
(§5) The treated plants and control plants were placed in a greenhouse as described above and watered by sub-irrigation to prevent wash-off of the test compounds. After approximately 3 weeks, the condition of the test plants as compared with that of the untreated plants was determined visually and scored on a scale of 0 to 100 percent where 0 corresponds to no injury or growth inhibition and 100 corresponds to complete kill.
(§6) Colby's equation was used to determine the herbicidal effects expected from the mixtures (Colby, S. R. 1967. Calculation of the synergistic and antagonistic response of herbicide combinations. Weeds 15:20-22.).

[2] = test system: LEFCH (Leptochloa chinensis (L.) Nees, Chinese sprangletop); test: Example I postemergence foliar-applied mixtures, direct seeded rice weeds, greenhouse: LEFCH
Description: as §1, §2, §3, §4, §5, §6

[3] = test system: ECHCG (Echinochloa crusgalli (L.) Beauv., barnyardgrass); test: Example I postemergence foliar-applied mixtures, direct seeded rice weeds, greenhouse: ECHCG
Description: as §1, §2, §3, §4, §5, §6

SMILES: CCCCOC(=O)c1nc(-c2ccc(Cl)c(OC)c2F)c(F)c(N)c1Cl [Compound A n-Butyl Ester]
- Visual Weed Control (%) - 20 DAA IPOHE Obs [1]: 15%
- Visual Weed Control (%) - 20 DAA LEFCH Obs [2]: 10%
- Visual Weed Control (%) - 20 DAA ECHCG Obs [3]: 65%
